Source: the supplement of paper PMC10307832

compound: CC(C)C[C@@H](C(=O)N[C@H](C(=O)OC1CCCC1)c1ccccc1)[C@H](O)C(=O)NO [Tosedostat] + CC(C)C[C@H](NC(=O)[C@H](Cc1ccccc1)NC(=O)c1cnccn1)B(O)O [Bortezomib] (partner 0.002 µM); assay: relative viability (nuclei count vs DMSO), 5 days (fraction); higher = more cells survive; conditions: first compound 0.02 µM
How it was run: (§1)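 The day after seeding in 1536-well plates, lung cancer cell lines were treated by pin tool with a single drug, or with a fixed anchor-drug dose together with five library-drug doses (not always all listed) in √10 steps. After 5 days, a combined fix-and-stain solution (final 0.05% Triton X-100, 1% formaldehyde, 1 ug/ml Hoechst) was added. Nuclei counted on 4× images gave relative viability as treated counts over vehicle counts, reported as the median of duplicate plates.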

Row | Cell Line | relative viability
1 | NCI-H322M | 1.36
2 | NCI-H1437 | 0.465
3 | PC-14 | 0.79
4 | NCI-H1734 | 1.07
5 | EPLC-272H | 1.14
6 | NCI-H3122 | 1.02
7 | NCI-H2009 | 1.3
8 | NCI-H520 | 0.348
9 | NCI-H1651 | 0.973
10 | NCI-H1993 | 1.02
11 | HCC-15 | 1.19
12 | EKVX | 0.974
13 | LC-2-ad | 1.15
14 | NCI-H1666 | 0.753
15 | NCI-H2085 | 1.22

same assay, conditions: first compound 0.06325 µM

Row | Cell Line | relative viability
16 | HOP-62 | 0.931
17 | HCC-44 | 0.883
18 | LXF-289 | 0.992
19 | BEN | 1.08
20 | HARA | 1.08
21 | HCC-78 | 0.497
22 | NCI-H647 | 0.947
23 | LCLC-97TM1 | 0.696
24 | NCI-H2126 | 1.14
25 | A-427 | 0.916
26 | NCI-H650 | 0.894
27 | RERF-LC-KJ | 1.3
28 | NCI-H1915 | 0.942
29 | NCI-H661 | 0.69
30 | NCI-H441 | 0.396
31 | NCI-H1975 | 0.454
32 | 201T | 1.08

Row | Cell Line | relative viability
33 | NCI-H2023 | 0.965
34 | HCC-827 | 1.04
35 | NCI-H322M | 0.853
36 | NCI-H1437 | 0.512
37 | PC-14 | 0.814
38 | NCI-H1734 | 0.942
39 | EPLC-272H | 0.826
40 | NCI-H3122 | 1.03
41 | NCI-H2009 | 1.02
42 | NCI-H520 | 0.519
43 | NCI-H1651 | 1.03
44 | NCI-H1993 | 1.22
45 | HCC-15 | 0.98
46 | EKVX | 0.995
47 | LC-2-ad | 0.971
48 | NCI-H1666 | 0.849
49 | NCI-H2085 | 1.14

same assay, conditions: first compound 0.2 µM

Row | Cell Line | relative viability
50 | HOP-62 | 0.805
51 | HCC-44 | 0.937
52 | LXF-289 | 0.974
53 | BEN | 0.827
54 | HARA | 1.1
55 | HCC-78 | 0.473
56 | NCI-H647 | 0.788
57 | LCLC-97TM1 | 0.537
58 | NCI-H2126 | 1.14
59 | A-427 | 1.06
60 | NCI-H650 | 0.562
61 | RERF-LC-KJ | 1.05
62 | NCI-H1915 | 1.01
63 | NCI-H661 | 0.894
64 | NCI-H441 | 0.332
65 | NCI-H1975 | 0.36
66 | 201T | 1.14

Row | Cell Line | relative viability
67 | NCI-H2023 | 0.888
68 | HCC-827 | 1.07
69 | NCI-H322M | 1.2
70 | NCI-H1437 | 0.488
71 | PC-14 | 0.896
72 | NCI-H1734 | 0.907
73 | EPLC-272H | 0.738
74 | NCI-H3122 | 1.1
75 | NCI-H2009 | 0.971
76 | NCI-H520 | 0.508
77 | NCI-H1651 | 0.834
78 | NCI-H1993 | 0.852
79 | HCC-15 | 0.956
80 | EKVX | 1.03
81 | LC-2-ad | 1.01
82 | NCI-H1666 | 0.766
83 | NCI-H2085 | 1.07

same assay, conditions: first compound 0.6325 µM

Row | Cell Line | relative viability
84 | HOP-62 | 0.526
85 | HCC-44 | 0.793
86 | LXF-289 | 0.978
87 | BEN | 0.908
88 | HARA | 1.1
89 | HCC-78 | 0.555
90 | NCI-H647 | 1.07
91 | LCLC-97TM1 | 0.336
92 | NCI-H2126 | 1.08
93 | A-427 | 1.01
94 | NCI-H650 | 0.685
95 | RERF-LC-KJ | 0.923
96 | NCI-H1915 | 0.956
97 | NCI-H661 | 0.63
98 | NCI-H441 | 0.396
99 | NCI-H1975 | 0.347
100 | 201T | 1.14

Row | Cell Line | relative viability
101 | NCI-H2023 | 0.649
102 | HCC-827 | 1
103 | NCI-H322M | 1.1
104 | NCI-H1437 | 0.524
105 | PC-14 | 0.845
106 | NCI-H1734 | 0.89
107 | EPLC-272H | 0.67
108 | NCI-H3122 | 1.05
109 | NCI-H2009 | 0.926
110 | NCI-H520 | 0.449
111 | NCI-H1651 | 0.834
112 | NCI-H1993 | 0.872
113 | HCC-15 | 0.869
114 | EKVX | 0.946
115 | LC-2-ad | 0.906
116 | NCI-H1666 | 0.735
117 | NCI-H2085 | 1.03

same assay, conditions: first compound 2 µM

Row | Cell Line | relative viability
118 | HOP-62 | 0.498
119 | HCC-44 | 0.459
120 | LXF-289 | 0.989
121 | BEN | 0.728
122 | HARA | 0.942
123 | HCC-78 | 0.563
124 | NCI-H647 | 0.829
125 | LCLC-97TM1 | 0.193
126 | NCI-H2126 | 1.03
127 | A-427 | 0.879
128 | NCI-H650 | 0.504
129 | RERF-LC-KJ | 0.892
130 | NCI-H1915 | 0.946
131 | NCI-H661 | 0.768
132 | NCI-H441 | 0.404
133 | NCI-H1975 | 0.304
134 | 201T | 1.21

Row | Cell Line | relative viability
135 | NCI-H2023 | 0.817
136 | HCC-827 | 1.01
137 | NCI-H322M | 1.08
138 | NCI-H1437 | 0.324
139 | PC-14 | 0.944
140 | NCI-H1734 | 0.786
141 | EPLC-272H | 0.574
142 | NCI-H3122 | 1.02
143 | NCI-H2009 | 0.728
144 | NCI-H520 | 0.76
145 | NCI-H1651 | 0.914
146 | NCI-H1993 | 0.642
147 | HCC-15 | 0.998
148 | EKVX | 0.823
149 | LC-2-ad | 0.791
150 | NCI-H1666 | 0.698
151 | NCI-H2085 | 0.977

compound: CC(C)C[C@@H](C(=O)N[C@H](C(=O)OC1CCCC1)c1ccccc1)[C@H](O)C(=O)NO [Tosedostat] + CC(=O)Nc1cccc(-n2c(=O)n(C3CC3)c(=O)c3c(Nc4ccc(I)cc4F)n(C)c(=O)c(C)c32)c1 [Trametinib] (partner 0.02 µM); assay: as above; conditions: first compound 0.02 µM
How it was run: as §1

Row | Cell Line | relative viability
152 | HOP-62 | 0.41
153 | HCC-44 | 1.21
154 | LXF-289 | 0.744
155 | BEN | 1.17
156 | HARA | 0.85
157 | HCC-78 | 0.729
158 | NCI-H647 | 0.452
159 | LCLC-97TM1 | 0.19
160 | NCI-H2126 | 0.493
